In ChEMBL document CHEMBL5226392, “Anti-inflammatory Quinoline Alkaloids from the Roots of Waltheria indica” (J Nat Prod, 2023):
Calls of active or inactive are those of the source. The calls are words filed in the database; no cut-off is given here.

What was measured:
RAW264.7 [1] = assay: Inhibition of NO production in LPS-stimulated mouse RAW264.7 cells at 50 uM preincubated for 15 mins followed by LPS stimulation and measured after 20 hrs by Griess reagent based assay relative to control; format: functional; settings: RAW264.7, 20.25 h, time 1215 min
RAW264.7 [2] = assay: Inhibition of NO production in LPS-stimulated mouse RAW264.7 cells preincubated for 15 mins followed by LPS stimulation and measured after 20 hrs by Griess reagent based assay; format: functional, cell-based
[3] = Cytotoxicity against LPS-stimulated mouse RAW264.7 cells assessed as cell survival at 50 uM preincubated for 15 mins followed by LPS stimulation and measured after 20 hrs by CCK-8 assay relative to control; format: toxicity, cell-based; settings: LPS-stimulated RAW264.7 cells, time 1215 min, read-out: Activity
[4] = Cytotoxicity against TNF-alpha induced human 293/NFkB-Luc cells assessed as increase in cell survival at 50 uM preincubated for 15 mins followed by TNF-alpha induction and measured after 6 hrs by MTT assay relative to control; format: toxicity, cell-based; settings: TNF-alpha induced 293/NFkB-Luc cells, time 375 min, read-out: Activity
[5] = Antiinflammatory activity in human 293/NFkB-Luc cells assessed as inhibition of TNF-alpha induced NFkaapaB activity at 50 uM preincubated for 15 mins followed by TNF-alpha induction and measured after 6 hrs by luminescence based assay relative to control; format: functional; settings: 6.25 h, time 375 min
[6] = Antiinflammatory activity in human 293/NFkB-Luc cells assessed as inhibition of TNF-alpha induced NFkaapaB activity preincubated for 15 mins followed by TNF-alpha induction and measured after 6 hrs by luminescence based assay; format: functional, cell-based
RAW264.7 [7] = assay: Antiinflammatory activity in mouse RAW264.7 cells assessed as inhibition of LPS-induced iNOS protein expression at 30 uM preincubated for 15 mins followed by LPS stimulation and measured after 24 hrs by Western blot analysis; format: functional, cell-based; settings: time 1215.0 min
RAW264.7 [8] = assay: Antiinflammatory activity in mouse RAW264.7 cells assessed as inhibition of LPS-induced […] at 10 to 30 uM preincubated for 15 mins followed by LPS stimulation and measured after 4 hrs by qPCR analysis; format: functional, cell-based; settings: dose 10-30 µM, time 255.0 min
[9] = Cytotoxicity against LPS-stimulated mouse RAW264.7 cells assessed as cell growth inhibition preincubated for 15 mins followed by LPS stimulation and measured after 20 hrs by CCK-8 assay; format: toxicity, cell-based; settings: LPS-stimulated RAW264.7 cells

SMILES	IC50 (RAW264.7 [2]) [µM]	IC50 [6] [µM]	inhibition at 50 µM (RAW264.7 [1]) [%]	viability at 20 h, 50 µM [3] [%]	viability at 6 h, 50 µM [4] [%]	inhibition at 50 µM [5] [%]	Activity (RAW264.7 [7])	Activity (RAW264.7 [8])	IC50 at 20 h [9] [µM]
CCCCCCCC[C@H]1CC[C@@H](OC)c2[nH]c(C)c(OC)c(=O)c21	42.9		60.3	51.4	90.3	< 50			
COc1c(C)[nH]c2c(c1=O)[C@@H](CCCCCc1ccccc1)CCC2=O	40.7		59.7	67.5	88.4	< 50			
CNC(=N)NCCC[C@H](N)C(=O)O	22.7								
COc1c(C)[nH]c2ccc3c(c2c1=O)[C@@H]1CCC[C@@]3(c2ccccc2)O1	35.7	7.1	58.7	100	89	78			
COc1c(C)[nH]c2c(c1=O)[C@@H](CCCCC(=O)c1ccccc1)CCC2=O			< 50	74.5	82.2	< 50			
COc1c(C)[nH]c2c(c1=O)[C@@H](CCCCCc1ccc(O)cc1)CCC2=O			< 50	89.3	80.5	< 50			
CC[C@@H](C)[C@@H]1NC(=O)[C@@H](NC(=O)[C@H](Cc2ccccc2)N(C)C)[C@@H](c2ccccc2)Oc2ccc(cc2)/C=C\NC1=O			< 50	94.8	86.4	< 50			
CC[C@H](C)[C@@H]1NC(=O)[C@H](NC(=O)/C=C/c2ccccc2)[C@H](c2ccccc2)Oc2ccc(cc2)/C=C\NC1=O	43		58.5	100	100	< 50			
CCCCCCCC(=O)c1ccc(OC)c2[nH]c(C)c(OC)c(=O)c12			< 50	69.9	86.7	< 50			
COc1c(C)[nH]c2c(OC)ccc(C(=O)CCCCc3ccccc3)c2c1=O			< 50	82.8	76.8	< 50			
COc1c(C)n(OC)c2c(c1=O)[C@@H](CCCCCc1ccccc1)CCC2	11	12.1	99.7	< 50	89	88.6			32.2
CCCCCCCC[C@H]1CCCc2[nH]c(C)c(OC)c(=O)c21	20.8		99.9	67.6	90.8	< 50			
CCCCCCCC[C@H]1CCC(=O)c2[nH]c(C)c(OC)c(=O)c21	16.1		97.4	63.5	85.8	< 50	Active		
COc1ccc(OC)c([C@@]2(O)c3ccc4[nH]c(C)c(OC)c(=O)c4c3[C@@H]3CC[C@H]2O3)c1			< 50	100	74.5	< 50			
COc1c(C)[nH]c2c(c1=O)[C@@H](CCCCCc1ccccc1)CC[C@H]2OC			< 50	57.2	69.9	< 50			
COc1ccccc1[C@]1(O)c2ccc3[nH]c(C)c(OC)c(=O)c3c2[C@@H]2CC[C@H]1O2			< 50	100	86.7	< 50			
COc1c(C)[nH]c2cccc(CCCCCc3ccccc3)c2c1=O	11.4	10.2	97.9	< 50	76.7	77.5			33.3
CCCCCCC[C@H](O)c1ccc(OC)c2[nH]c(C)c(OC)c(=O)c12	25.8		91.7	64.7	75.6	< 50			
CCCCCCCCc1ccc(O)c2[nH]c(C)c(OC)c(=O)c12			< 50	70.2	83.6	< 50			
COc1c(C)[nH]c2c(O)ccc(CCCCCc3ccccc3)c2c1=O			< 50	59.3	83.5	< 50			

The next lines start with results.

IC50 (RAW264.7 [2]) [µM]	IC50 [6] [µM]	SMILES	inhibition at 50 µM (RAW264.7 [1]) [%]	viability at 20 h, 50 µM [3] [%]	viability at 6 h, 50 µM [4] [%]	inhibition at 50 µM [5] [%]	Activity (RAW264.7 [7])	Activity (RAW264.7 [8])	IC50 at 20 h [9] [µM]
	9.7	Cc1ccc(S(=O)(=O)/C=C/C#N)cc1							
25.4		CCCCCCCC[C@H]1CCC(=O)c2[nH]c(CO)c(OC)c(=O)c21	89.9	50.9	93.1	< 50			
35.6		COc1c(C)[nH]c2c(OC)ccc(CCCCCCC(C)=O)c2c1=O	63.8	86.5	75.8	< 50			
32		O=C1N/C=C\c2ccc(cc2)O[C@@H](c2ccccc2)[C@H](NC(=O)[C@@H]2CCCN2C(=O)/C=C/c2ccccc2)C(=O)N[C@H]1Cc1ccccc1	63.7	100	76.6	< 50			
11.7		COc1c(C)[nH]c2c(c1=O)[C@@H](CCCCCc1ccccc1)CCC2	97.2	84.3	77.2	< 50	Active	Active	
12.8	10.1	COc1c(C)[nH]c2c(c1=O)[C@H](CCCCCc1ccccc1)CCC2	99.1	61	91.8	81.6			
18.8	10.3	COc1c(C)n(OC)c2c(c1=O)[C@@H](CCCCCc1ccc(O)cc1)CCC2	94.5	< 50	85.3	85.4			25.9
31	11.9	COc1c(CO)[nH]c2c(c1=O)[C@@H](CCCCCc1ccccc1)CCC2=O	79.1	50.8	100	71.1			
38.8	7.2	COc1ccccc1[C@@H]1c2ccc3[nH]c(C)c(OC)c(=O)c3c2[C@@H]2CC[C@H]1O2	56.3	100	79.6	84.5			
25.8		CCCCCCC[C@@H](O)c1ccc(OC)c2[nH]c(C)c(OC)c(=O)c12	86.5	84.9	72.6	< 50			
	8.9	COc1c(C)n(OC)c2c(c1=O)[C@@H](CCCCC(=O)c1ccccc1)CCC2	< 50	73.2	82.7	97.9			
